Several values for one entry are separate records, joined by “and”; a condition that tells them apart may be missing. Equal entries are not always repeated.

In one test the target is T1, BRM (Homo sapiens, UniProt P51531).
T1 construct: made in house; host or cells: High Five insect cells
As to the kind of experiment: ATPase catalytic activity of BRM, ADP-Glo in vitro biochemical assay. To be noted: ATPase catalytic activity, 30 nM BRM, 400 μM ATP, read-out: BRM IP50 (μM)*. On the technique in general: In ADP-Glo the light output rises with the ADP produced.

The next test addresses T2, BRG-1 (Homo sapiens, UniProt P51532).
T2 construct: made in house; host or cells: High Five insect cells
The experiment in a line: ATPase catalytic activity of BRG-1, ADP-Glo in vitro biochemical assay. To be noted: ATPase catalytic activity, 30 nM BRG-1, 400 μM ATP, read-out: BRG1 IP50 (μM)*.

T1 sequence (P51531 whole entry): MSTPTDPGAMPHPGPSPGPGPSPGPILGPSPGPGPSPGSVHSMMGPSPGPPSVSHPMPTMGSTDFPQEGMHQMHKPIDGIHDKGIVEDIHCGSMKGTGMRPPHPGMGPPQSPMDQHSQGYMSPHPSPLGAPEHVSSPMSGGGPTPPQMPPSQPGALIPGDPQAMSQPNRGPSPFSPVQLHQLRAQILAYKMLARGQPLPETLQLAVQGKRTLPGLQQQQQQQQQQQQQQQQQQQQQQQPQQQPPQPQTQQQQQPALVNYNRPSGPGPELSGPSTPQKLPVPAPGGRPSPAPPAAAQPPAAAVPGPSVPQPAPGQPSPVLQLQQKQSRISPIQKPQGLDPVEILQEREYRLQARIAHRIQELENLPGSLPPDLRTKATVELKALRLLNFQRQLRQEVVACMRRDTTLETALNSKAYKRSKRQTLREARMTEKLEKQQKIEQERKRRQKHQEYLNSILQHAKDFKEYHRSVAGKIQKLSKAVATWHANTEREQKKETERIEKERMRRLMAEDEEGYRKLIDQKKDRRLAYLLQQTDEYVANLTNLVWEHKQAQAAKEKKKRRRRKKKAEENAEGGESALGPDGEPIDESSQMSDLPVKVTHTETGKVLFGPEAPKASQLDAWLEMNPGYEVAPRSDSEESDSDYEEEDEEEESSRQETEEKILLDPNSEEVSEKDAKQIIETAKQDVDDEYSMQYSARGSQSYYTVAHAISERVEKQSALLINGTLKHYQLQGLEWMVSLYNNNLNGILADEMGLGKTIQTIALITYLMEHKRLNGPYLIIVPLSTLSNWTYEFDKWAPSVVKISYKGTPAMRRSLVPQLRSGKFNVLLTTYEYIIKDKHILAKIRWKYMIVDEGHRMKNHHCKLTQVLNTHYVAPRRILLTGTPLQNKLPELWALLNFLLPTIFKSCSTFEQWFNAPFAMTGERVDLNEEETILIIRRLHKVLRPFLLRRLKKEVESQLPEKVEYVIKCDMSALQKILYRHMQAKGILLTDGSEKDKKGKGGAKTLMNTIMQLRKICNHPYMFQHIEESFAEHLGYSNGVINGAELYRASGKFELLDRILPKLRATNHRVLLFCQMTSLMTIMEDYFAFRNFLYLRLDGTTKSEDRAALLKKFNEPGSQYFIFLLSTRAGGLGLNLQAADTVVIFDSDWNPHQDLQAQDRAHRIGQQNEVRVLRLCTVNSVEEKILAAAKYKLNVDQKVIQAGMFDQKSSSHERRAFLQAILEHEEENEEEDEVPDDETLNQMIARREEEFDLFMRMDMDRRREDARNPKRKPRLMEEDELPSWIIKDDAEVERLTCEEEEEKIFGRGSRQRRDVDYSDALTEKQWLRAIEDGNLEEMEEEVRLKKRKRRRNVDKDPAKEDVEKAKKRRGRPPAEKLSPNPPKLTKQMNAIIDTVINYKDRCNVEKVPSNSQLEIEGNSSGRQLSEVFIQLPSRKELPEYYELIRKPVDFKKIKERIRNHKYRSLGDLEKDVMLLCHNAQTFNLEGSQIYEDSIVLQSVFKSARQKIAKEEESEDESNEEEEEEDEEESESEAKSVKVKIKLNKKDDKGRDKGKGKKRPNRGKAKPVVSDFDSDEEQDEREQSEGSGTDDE
T2 sequence (P51532 whole entry): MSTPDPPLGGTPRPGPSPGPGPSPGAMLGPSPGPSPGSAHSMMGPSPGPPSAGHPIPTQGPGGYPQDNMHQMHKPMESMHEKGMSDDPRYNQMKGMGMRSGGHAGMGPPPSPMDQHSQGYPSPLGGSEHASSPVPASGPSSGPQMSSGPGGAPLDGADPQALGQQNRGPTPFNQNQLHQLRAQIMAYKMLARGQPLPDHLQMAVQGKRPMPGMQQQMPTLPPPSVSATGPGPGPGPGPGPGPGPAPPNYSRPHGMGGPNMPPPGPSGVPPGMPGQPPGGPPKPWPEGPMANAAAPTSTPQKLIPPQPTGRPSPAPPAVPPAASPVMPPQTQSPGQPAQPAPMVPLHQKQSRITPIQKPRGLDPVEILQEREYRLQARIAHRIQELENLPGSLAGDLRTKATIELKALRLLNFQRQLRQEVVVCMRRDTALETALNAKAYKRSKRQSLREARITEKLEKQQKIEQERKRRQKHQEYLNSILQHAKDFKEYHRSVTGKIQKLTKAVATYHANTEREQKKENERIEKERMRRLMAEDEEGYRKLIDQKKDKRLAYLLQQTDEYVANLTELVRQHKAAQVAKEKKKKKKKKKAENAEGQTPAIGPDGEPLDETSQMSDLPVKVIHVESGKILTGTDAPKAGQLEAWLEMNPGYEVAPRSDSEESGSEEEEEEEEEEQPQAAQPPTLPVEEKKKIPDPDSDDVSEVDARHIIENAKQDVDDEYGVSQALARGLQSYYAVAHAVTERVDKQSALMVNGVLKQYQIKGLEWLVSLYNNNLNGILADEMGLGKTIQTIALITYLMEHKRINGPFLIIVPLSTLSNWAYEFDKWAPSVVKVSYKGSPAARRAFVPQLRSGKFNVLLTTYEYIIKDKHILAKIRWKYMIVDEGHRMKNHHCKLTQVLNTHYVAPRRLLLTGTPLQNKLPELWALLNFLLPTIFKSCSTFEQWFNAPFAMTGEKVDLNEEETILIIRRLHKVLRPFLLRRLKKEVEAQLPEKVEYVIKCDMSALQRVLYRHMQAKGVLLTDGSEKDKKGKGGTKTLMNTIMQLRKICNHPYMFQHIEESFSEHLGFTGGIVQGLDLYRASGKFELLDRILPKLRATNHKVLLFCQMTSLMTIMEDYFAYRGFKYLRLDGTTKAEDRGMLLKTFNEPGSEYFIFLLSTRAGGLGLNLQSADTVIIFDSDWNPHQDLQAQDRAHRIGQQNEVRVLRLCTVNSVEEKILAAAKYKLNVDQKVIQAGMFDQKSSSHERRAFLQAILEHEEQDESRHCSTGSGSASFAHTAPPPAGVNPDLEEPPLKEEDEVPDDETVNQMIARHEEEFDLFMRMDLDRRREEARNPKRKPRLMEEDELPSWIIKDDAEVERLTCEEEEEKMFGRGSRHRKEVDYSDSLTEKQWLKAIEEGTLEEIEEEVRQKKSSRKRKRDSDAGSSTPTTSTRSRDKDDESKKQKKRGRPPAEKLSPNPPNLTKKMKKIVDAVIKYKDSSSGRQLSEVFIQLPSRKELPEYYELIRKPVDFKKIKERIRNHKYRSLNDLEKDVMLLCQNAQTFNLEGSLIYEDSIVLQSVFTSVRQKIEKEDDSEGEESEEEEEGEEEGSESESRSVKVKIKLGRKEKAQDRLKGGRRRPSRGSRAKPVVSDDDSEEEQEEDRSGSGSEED

In the case of `CS(=O)(=O)n1ccc(C(=O)NCC(=O)Nc2nc(-c3cccc(-c4ccncc4)c3)cs2)n1` [Compound 45, 1-(methylsulfonyl)-N-(2-oxo-2-((4-(3-(pyridin-4-yl)phenyl)thiazol-2-yl)amino)ethyl)-1H-pyrazole-3-carboxamide], the IC50 on BRM and at BRG-1 was less than 0.01 µM each time.
With `CS(=O)(=O)n1cnc(C(=O)NCC(=O)Nc2nc(-c3cccc(-c4ccncc4)c3)cs2)c1` [Compound 46, 1-(methylsulfonyl)-N-(2-oxo-2-((4-(3-(pyridin-4-yl)phenyl)thiazol-2-yl)amino)ethyl)-1H-imidazole-4-carboxamide], the IC50 at BRM and on BRG-1 was less than 0.01 µM in each case.
With `CN(C)S(=O)(=O)n1ccc(C(=O)NCC(=O)Nc2nc(-c3cccc(-c4ccncc4)c3)cs2)c1` [Compound 47, 1-(N,N-dimethylsulfamoyl)-N-(2-oxo-2-((4-(3-(pyridin-4-yl)phenyl)thiazol-2-yl)amino)ethyl)-1H-pyrrole-3-carboxamide], the IC50 at BRM and at BRG-1 was greater than 0.01 µM in each case.
Regarding `CC(=O)n1ccc(C(=O)NCC(=O)Nc2nc(-c3cccc(-c4ccncc4)c3)cs2)c1` [Compound 50, 1-acetyl-N-(2-oxo-2-((4-(3-(pyridin-4-yl)phenyl)thiazol-2-yl)amino)ethyl)-1H-pyrrole-3-carboxamide], the IC50 at BRM and at BRG-1 was greater than 0.1 µM in each case.
Consider `CS(=O)(=O)n1ccc(C(=O)NCC(=O)Nc2nc(-c3cccc(-c4cccc(CN)c4)c3)cs2)c1` [Compound 53, N-(2-((4-(3′-(aminomethyl)-[1,1′-biphenyl]-3-yl)thiazol-2-yl)amino)-2-oxoethyl)-1-(methylsulfonyl)-1H-pyrrole-3-carboxamide], for which the IC50 on BRM and on BRG-1 was less than 0.01 µM throughout.
For the molecule `CS(=O)(=O)n1ccc(C(=O)NCC(=O)Nc2nc(-c3cccc(-c4ccnc(N5CCNCC5)c4)c3)cs2)c1` [Compound 54, 1-(methylsulfonyl)-N-(2-oxo-2-((4-(3-(2-(piperazin-1-yl)pyridin-4-yl)phenyl)thiazol-2-yl)amino)ethyl)-1H-pyrrole-3-carboxamide], the IC50 on BRM and on BRG-1 was less than 0.01 µM in each case.
Consider `Cc1cc(C)cc(-c2cccc(-c3csc(NC(=O)CNC(=O)c4ccn(S(C)(=O)=O)c4)n3)c2)c1` [Compound 55, N-(2-((4-(3′,5′-dimethyl-[1,1′-biphenyl]-3-yl)thiazol-2-yl)amino)-2-oxoethyl)-1-(methylsulfonyl)-1H-pyrrole-3-carboxamide], for which the IC50 at BRM and on BRG-1 was less than 0.01 µM throughout.
As for `Cc1cc(-c2cccc(-c3csc(NC(=O)CNC(=O)c4ccn(C(C)(C)C)c4)n3)c2)on1` [Compound 56, 1-(tert-butyl)-N-(2-((4-(3-(3-methylisoxazol-5-yl)phenyl)thiazol-2-yl)amino)-2-oxoethyl)-1H-pyrrole-3-carboxamide], the IC50 on BRM and at BRG-1 was greater than 0.01 µM throughout.
Consider `CC(=O)N(C)c1cc(-c2cccc(-c3csc(NC(=O)CNC(=O)c4ccn(S(C)(=O)=O)c4)n3)c2)ccn1` [Compound 57, N-(2-((4-(3-(2-(N-methylacetamido)pyridin-4-yl)phenyl)thiazol-2-yl)amino)-2-oxoethyl)-1-(methylsulfonyl)-1H-pyrrole-3-carboxamide], for which the IC50 on BRM and on BRG-1 was less than 0.01 µM each time.
As for `Cn1ccc(-c2cccc(-c3csc(NC(=O)CNC(=O)c4ccn(C(C)(C)C)c4)n3)c2)n1` [Compound 58, 1-(tert-butyl)-N-(2-((4-(3-(1-methyl-1H-pyrazol-3-yl)phenyl)thiazol-2-yl)amino)-2-oxoethyl)-1H-pyrrole-3-carboxamide], the IC50 at BRM and on BRG-1 was greater than 0.01 µM in each case.
On to `CSCC[C@H](NC(=O)c1ccn(S(C)(=O)=O)c1)C(=O)Nc1nc(-c2cccc(-c3ccnc(C)c3)c2)cs1` [Compound 59, (S)—N-(1-((4-(3-(2-methylpyridin-4-yl)phenyl)thiazol-2-yl)amino)-4-(methylthio)-1-oxobutan-2-yl)-1-(methylsulfonyl)-1H-pyrrole-3-carboxamide], for which the IC50 on BRM and at BRG-1 was less than 0.01 µM throughout.
In the case of `COC[C@H](NC(=O)c1ccn(S(C)(=O)=O)c1)C(=O)Nc1nc(-c2cccc(-c3ccnc(C)c3)c2)cs1` [Compound 60, (S)—N-(3-methoxy-1-((4-(3-(2-methylpyridin-4-yl)phenyl)thiazol-2-yl)amino)-1-oxopropan-2-yl)-1-(methylsulfonyl)-1H-pyrrole-3-carboxamide], the IC50 at BRM and on BRG-1 was less than 0.01 µM each time.
With `COC[C@H](NC(=O)c1ccn(S(C)(=O)=O)c1)C(=O)Nc1nc(-c2cccc(-c3cc(C)nc(C)c3)c2)cs1` [Compound 61, (S)—N-(1-((4-(3-(2,6-dimethylpyridin-4-yl)phenyl)thiazol-2-yl)amino)-3-methoxy-1-oxopropan-2-yl)-1-(methylsulfonyl)-1H-pyrrole-3-carboxamide], the IC50 at BRM and on BRG-1 was less than 0.01 µM each time.
Regarding `COC[C@H](NC(=O)c1ccn(C(C)(C)C)c1)C(=O)Nc1nc(-c2cccc(-c3ccn(C)n3)c2)cs1` [Compound 62, (S)-1-(tert-butyl)-N-(3-methoxy-1-((4-(3-(1-methyl-1H-pyrazol-3-yl)phenyl)thiazol-2-yl)amino)-1-oxopropan-2-yl)-1H-pyrrole-3-carboxamide], the IC50 at BRM and on BRG-1 was greater than 0.01 µM in each case.
Take `COC[C@H](NC(=O)c1ccn(C(C)(C)C)c1)C(=O)Nc1nc(-c2ccc3ccn(C)c(=O)c3c2)cs1` [Compound 63, (S)-1-(tert-butyl)-N-(3-methoxy-1-((4-(2-methyl-1-oxo-1,2-dihydroisoquinolin-7-yl)thiazol-2-yl)amino)-1-oxopropan-2-yl)-1H-pyrrole-3-carboxamide]: the IC50 at BRM and at BRG-1 was greater than 0.01 µM each time.
For `COC[C@H](NC(=O)c1ccn(C(C)(C)C)c1)C(=O)Nc1nc(-c2ccc3c(c2)C(=O)N(C)CC3)cs1` [Compound 64, (S)-1-(tert-butyl)-N-(3-methoxy-1-((4-(2-methyl-1-oxo-1,2,3,4-tetrahydroisoquinolin-7-yl)thiazol-2-yl)amino)-1-oxopropan-2-yl)-1H-pyrrole-3-carboxamide], the IC50 on BRM and at BRG-1 was greater than 0.01 µM throughout.
Regarding `COC[C@H](NC(=O)c1ccn(S(C)(=O)=O)c1)C(=O)Nc1nc(-c2cccc(-c3ccncn3)c2)cs1` [Compound 65, (S)—N-(3-methoxy-1-oxo-1-((4-(3-(pyrimidin-4-yl)phenyl)thiazol-2-yl)amino)propan-2-yl)-1-(methylsulfonyl)-1H-pyrrole-3-carboxamide], the IC50 on BRM and at BRG-1 was less than 0.01 µM throughout.
Consider `COC[C@H](NC(=O)c1ccn(C(C)(C)C)c1)C(=O)Nc1nc(-c2cccc(-c3ccncn3)c2)cs1` [Compound 66, (S)-1-(tert-butyl)-N-(3-methoxy-1-oxo-1-((4-(3-(pyrimidin-4-yl)phenyl)thiazol-2-yl)amino)propan-2-yl)-1H-pyrrole-3-carboxamide], for which the IC50 on BRM and at BRG-1 was greater than 0.01 µM in each case.
Consider `C[C@H](NC(=O)c1ccn(S(C)(=O)=O)c1)C(=O)Nc1nc(-c2cccc(-c3ccncc3)c2)cs1` [Compound 68, N-[(1S)-1-methyl-2-oxo-2-[[4-[3-(4-pyridyl)phenyl]thiazol-2-yl]amino]ethyl]-1-methylsulfonyl-pyrrole-3-carboxamide], for which the IC50 on BRM and on BRG-1 was less than 0.01 µM in each case.
For the molecule `CS(=O)(=O)n1ccc(C(=O)N[C@@H](CO)C(=O)Nc2nc(-c3cccc(-c4ccncc4)c3)cs2)c1` [Compound 69, (S)—N-(3-hydroxy-1-oxo-1-((4-(3-(pyridin-4-yl)phenyl)thiazol-2-yl)amino)propan-2-yl)-1-(methylsulfonyl)-1H-pyrrole-3-carboxamide], the IC50 on BRM and at BRG-1 was less than 0.01 µM throughout.
Take `CS(=O)(=O)n1ccc(C(=O)N[C@@H](CCO)C(=O)Nc2nc(-c3cccc(-c4ccncc4)c3)cs2)c1` [Compound 71, (S)—N-(4-hydroxy-1-oxo-1-((4-(3-(pyridin-4-yl)phenyl)thiazol-2-yl)amino)butan-2-yl)-1-(methylsulfonyl)-1H-pyrrole-3-carboxamide]: the IC50 is < 0.01 µM and > 0.01 µM at BRM; less than 0.01 µM on BRG-1.
For the molecule `COCC[C@H](NC(=O)c1ccn(S(C)(=O)=O)c1)C(=O)Nc1nc(-c2cccc(-c3ccncc3)c2)cs1` [Compound 72, (S)—N-(4-methoxy-1-oxo-1-((4-(3-(pyridin-4-yl)phenyl)thiazol-2-yl)amino)butan-2-yl)-1-(methylsulfonyl)-1H-pyrrole-3-carboxamide], the IC50 at BRM and at BRG-1 was less than 0.01 µM throughout.
For `CC(C)[C@H](NC(=O)c1ccn(S(C)(=O)=O)c1)C(=O)Nc1nc(-c2cccc(-c3ccncc3)c2)cs1` [Compound 73, (S)—N-(3-methyl-1-oxo-1-((4-(3-(pyridin-4-yl)phenyl)thiazol-2-yl)amino)butan-2-yl)-1-(methylsulfonyl)-1H-pyrrole-3-carboxamide], the IC50 at BRM and on BRG-1 was greater than 0.01 µM each time.
In the case of `CC(C)(C)[C@H](NC(=O)c1ccn(S(C)(=O)=O)c1)C(=O)Nc1nc(-c2cccc(-c3ccncc3)c2)cs1` [Compound 74, (S)—N-(3,3-dimethyl-1-oxo-1-((4-(3-(pyridin-4-yl)phenyl)thiazol-2-yl)amino)butan-2-yl)-1-(methylsulfonyl)-1H-pyrrole-3-carboxamide], the IC50 on BRM and at BRG-1 was greater than 1 µM throughout.
`CC(C)C[C@H](NC(=O)c1ccn(S(C)(=O)=O)c1)C(=O)Nc1nc(-c2cccc(-c3ccncc3)c2)cs1` [Compound 75, (S)—N-(4-methyl-1-oxo-1-((4-(3-(pyridin-4-yl)phenyl)thiazol-2-yl)amino)pentan-2-yl)-1-(methylsulfonyl)-1H-pyrrole-3-carboxamide]: the IC50 at BRM and on BRG-1 was greater than 0.01 µM throughout.

The values are drawn from patent US20230079819A1, “COMPOUNDS AND USES THEREOF” (Foghorn Therapeutics Inc., priority 2019, published 2023).
